For experiment [1], the target named is T1, M2_G15 fusion protein (M2 muscarinic receptor fused with the G15 G-protein alpha-subunit) (Homo sapiens, UniProt P08172).
T1 sequence (P08172 1-466): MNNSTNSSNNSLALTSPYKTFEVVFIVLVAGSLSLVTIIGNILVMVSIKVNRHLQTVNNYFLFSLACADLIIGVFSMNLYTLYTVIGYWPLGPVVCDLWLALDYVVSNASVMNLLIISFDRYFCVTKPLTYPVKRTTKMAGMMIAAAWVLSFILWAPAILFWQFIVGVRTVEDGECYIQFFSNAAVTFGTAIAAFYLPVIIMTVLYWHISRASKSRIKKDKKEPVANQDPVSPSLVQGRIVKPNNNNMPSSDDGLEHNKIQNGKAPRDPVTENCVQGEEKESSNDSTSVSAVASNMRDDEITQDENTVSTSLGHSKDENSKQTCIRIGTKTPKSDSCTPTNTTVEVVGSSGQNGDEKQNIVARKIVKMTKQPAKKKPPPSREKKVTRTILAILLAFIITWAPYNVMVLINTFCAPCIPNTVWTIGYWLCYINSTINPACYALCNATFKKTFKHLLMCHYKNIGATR
T1 sequence (P30679 1-374 partner): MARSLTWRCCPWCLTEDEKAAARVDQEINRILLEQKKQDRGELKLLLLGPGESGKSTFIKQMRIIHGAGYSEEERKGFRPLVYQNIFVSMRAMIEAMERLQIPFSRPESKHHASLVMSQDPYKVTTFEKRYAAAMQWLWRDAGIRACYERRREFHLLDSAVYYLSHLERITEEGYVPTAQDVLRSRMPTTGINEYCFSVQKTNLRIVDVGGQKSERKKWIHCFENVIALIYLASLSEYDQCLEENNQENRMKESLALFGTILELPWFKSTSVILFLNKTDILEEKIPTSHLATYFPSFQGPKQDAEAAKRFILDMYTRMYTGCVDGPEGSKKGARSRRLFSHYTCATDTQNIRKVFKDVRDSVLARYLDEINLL
Nature of the experiment: agonist-stimulated […]GTPγS binding, membranes. Set-up: gene CHRM2; clone #3, except KA from all five clones. The class given is biochemical. For orientation: Binding of GTPγS marks nucleotide exchange on a G protein.

Experiment [2] has as its target T2, M4_G15 fusion protein (M4 muscarinic receptor fused with the G15 G-protein alpha-subunit) (Homo sapiens, UniProt P08173).
T2 sequence (P08173 1-479): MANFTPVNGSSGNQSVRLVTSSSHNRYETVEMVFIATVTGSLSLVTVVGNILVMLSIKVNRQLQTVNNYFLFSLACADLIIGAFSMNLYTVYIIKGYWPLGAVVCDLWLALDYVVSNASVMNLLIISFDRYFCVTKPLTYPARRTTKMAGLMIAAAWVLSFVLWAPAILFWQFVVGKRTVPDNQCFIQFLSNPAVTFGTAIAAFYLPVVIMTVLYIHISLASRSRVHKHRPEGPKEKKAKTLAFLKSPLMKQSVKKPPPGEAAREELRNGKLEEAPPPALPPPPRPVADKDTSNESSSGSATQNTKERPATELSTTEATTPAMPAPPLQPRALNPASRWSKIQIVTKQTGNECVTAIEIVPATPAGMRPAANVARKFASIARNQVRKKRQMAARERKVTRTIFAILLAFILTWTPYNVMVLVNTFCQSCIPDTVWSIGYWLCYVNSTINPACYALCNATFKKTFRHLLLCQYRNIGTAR
T2 sequence (P30679 1-374 partner): T1 sequence (P30679 1-374 partner)
The experiment in a line: biochemical. Set-up: gene CHRM4.

Experiment [3] addresses T2, M4_G15 fusion protein (M4 muscarinic receptor fused with the G15 G-protein alpha-subunit). The experiment in a line: agonist-stimulated […]GTPγS binding, membranes. The class given is biochemical. Set-up: gene CHRM4; M4 fused via ARATR linker to N-terminus of G15 alpha-subunit (one fused chain); clone #3, except KA from all five clones.
In experiment [4] the target is T1, M2_G15 fusion protein (M2 muscarinic receptor fused with the G15 G-protein alpha-subunit). The experiment in a line: biochemical. Set-up: gene CHRM2.

As for `Clc1ccc2c(c1)N=C(N1CCNCC1)c1ccccc1N2` [NDMC], the negative logarithm of the EC50 (pEC50) in experiment [1] (clone #[…], agonist; […] […]GTPγS, […] GDP, […] MgCl2, […] °C) is listed as 6.84 ± 0.03.
As to `O=C1CCCN1CC#CCN1CCCC1` [oxotremorine], the Ki is 1480 nM in experiment [2] and 1660 nM in experiment [4]. The EC50 is 17 nM in experiment [3] and 18.6 nM in experiment [1].

The pEC50 is −log10 of the EC50, conventionally taken in molar units. Low readings indicate a large EC50, high ones a small EC50. Broadly, the Ki is the dissociation constant of the complex between target and ligand, obtained from inhibition or displacement. High values mean weaker binding, low ones tighter binding. As usually defined, the EC50 is the midpoint of the concentration-response curve. A higher EC50 goes with weaker potency.

The values are drawn from paper PMC6420642, “Applications and limitations of fitting of the operational model to determine relative efficacies of agonists” (Scientific Reports, 2019).
